Laboratory results from patent US20250059171A1 (Hoffmann-La Roche Inc., priority 2021, published 2025).

What was measured:
HCoV-229E 3CLpro = HCoV-229E 3CLpro (Human coronavirus 229E, UniProt P0C6X1); test: HCoV-229E 3CLpro inhibition assay (FRET); type: biochemical
SARS-CoV-2 3CLpro = SARS-CoV-2 3CLpro (Severe acute respiratory syndrome coronavirus 2, UniProt P0DTD1); test: biochemical
SARS-CoV 3CLpro = SARS-CoV 3CLpro (Severe acute respiratory syndrome coronavirus, UniProt P0C6X7); test: biochemical
MERS-CoV 3CLpro = MERS-CoV 3CLpro (Middle East respiratory syndrome-related coronavirus, UniProt K9N7C7); test: biochemical
MERS-CoV 3CLpro, sequence (K9N7C7 3248-3553): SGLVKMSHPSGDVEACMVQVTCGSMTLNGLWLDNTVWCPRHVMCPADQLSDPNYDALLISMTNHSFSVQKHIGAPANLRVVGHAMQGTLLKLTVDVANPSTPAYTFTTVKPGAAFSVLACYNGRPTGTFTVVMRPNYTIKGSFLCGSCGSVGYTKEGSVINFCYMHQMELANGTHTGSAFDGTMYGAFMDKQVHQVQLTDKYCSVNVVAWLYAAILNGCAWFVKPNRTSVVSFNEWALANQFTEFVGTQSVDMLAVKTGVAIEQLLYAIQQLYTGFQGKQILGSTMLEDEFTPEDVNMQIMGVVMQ

HCoV-229E 3CLpro, sequence (P0C6X1 2966-3267): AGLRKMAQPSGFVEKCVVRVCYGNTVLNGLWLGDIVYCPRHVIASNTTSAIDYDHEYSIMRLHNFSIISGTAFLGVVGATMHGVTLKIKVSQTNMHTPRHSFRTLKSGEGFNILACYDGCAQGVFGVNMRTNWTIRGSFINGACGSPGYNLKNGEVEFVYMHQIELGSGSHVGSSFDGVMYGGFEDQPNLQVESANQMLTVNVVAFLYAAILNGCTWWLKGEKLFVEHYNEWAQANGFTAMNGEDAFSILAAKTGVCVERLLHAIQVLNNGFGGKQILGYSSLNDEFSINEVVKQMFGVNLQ

| SMILES | IC50 (HCoV-229E 3CLpro) [µM] | IC50 (SARS-CoV-2 3CLpro) [µM] | IC50 (SARS-CoV 3CLpro) [µM] | IC50 (MERS-CoV 3CLpro) [µM] |
| --- | --- | --- | --- | --- |
| CC(C)(C)[C@H](NC(=O)C1CC(F)(F)C1)C(=O)N1C[C@@H]2CCC[C@@H]2[C@H]1C(=O)NN(C[C@@H]1CCNC1=O)C(=O)[C@H](F)Cl [Example 98, N-[(1S)-1-[(3S,3aS,6aR)-3-[[[(2R)-2-chloro-2-fluoro-acetyl]-[[(3S)-2-oxopyrrolidin-3-yl]methyl]amino]carbamoyl]-3,3a,4,5,6,6a-hexahydro-1H-cyclopenta[c]pyrrole-2-carbonyl]-2,2-dimethyl-propyl]-3,3-difluoro-cyclobutanecarboxamide] | 0.022 | 0.009 | 0.011 | 0.059 |
| CC(C)(C)[C@H](NC(=O)[C@@H]1CC1(F)F)C(=O)N1C[C@@H]2CCC[C@@H]2[C@H]1C(=O)NN(C[C@@H]1CCNC1=O)C(=O)[C@H](F)Cl [Example 99, (1S)—N-[(1S)-1-[(3S,3aS,6aR)-3-[[[(2R)-2-chloro-2-fluoro-acetyl]-[[(3S)-2-oxopyrrolidin-3-yl]methyl]amino]carbamoyl]-3,3a,4,5,6,6a-hexahydro-1H-cyclopenta[c]pyrrole-2-carbonyl]-2,2-dimethyl-propyl]-2,2-difluoro-cyclopropanecarboxamide] | 0.03 | 0.008 | 0.012 | 0.081 |
| CC(C)(C)[C@H](NC(=O)[C@H]1CC1(F)F)C(=O)N1C[C@@H]2CCC[C@@H]2[C@H]1C(=O)NN(C[C@@H]1CCNC1=O)C(=O)[C@H](F)Cl [Example 100, (1R)—N-[(1S)-1-[(3S,3aS,6aR)-3-[[[(2R)-2-chloro-2-fluoro-acetyl]-[[(3S)-2-oxopyrrolidin-3-yl]methyl]amino]carbamoyl]-3,3a,4,5,6,6a-hexahydro-1H-cyclopenta[c]pyrrole-2-carbonyl]-2,2-dimethyl-propyl]-2,2-difluoro-cyclopropanecarboxamide] | 0.032 | 0.008 | 0.014 | 0.077 |
| CC(C)(C)[C@H](NC(=O)[C@@H]1CC1(F)F)C(=O)N1C[C@@H]2CCC[C@@H]2[C@H]1C(=O)NN(C[C@@H]1CCNC1=O)C(=O)[C@@H](F)Cl [Example 101, (1S)—N-[(1S)-1-[(3S,3aS,6aR)-3-[[[(2S)-2-chloro-2-fluoro-acetyl]-[[(3S)-2-oxopyrrolidin-3-yl]methyl]amino]carbamoyl]-3,3a,4,5,6,6a-hexahydro-1H-cyclopenta[c]pyrrole-2-carbonyl]-2,2-dimethyl-propyl]-2,2-difluoro-cyclopropanecarboxamide] | 0.04 | 0.009 | 0.013 | 0.094 |
| CC(C)(C)[C@H](NC(=O)C(F)(F)F)C(=O)N1C[C@@H]2CCC[C@@H]2[C@H]1C(=O)NN(C[C@@H]1CCNC1=O)C(=O)[C@@H](F)Cl [Example 102, N-[(1S)-1-[(3S,3aS,6aR)-3-[[[(2S)-2-chloro-2-fluoro-acetyl]-[[(3S)-2-oxopyrrolidin-3-yl]methyl]amino]carbamoyl]-3,3a,4,5,6,6a-hexahydro-1H-cyclopenta[c]pyrrole-2-carbonyl]-2,2-dimethyl-propyl]-2,2,2-trifluoro-acetamide] | 0.112 | 0.012 | 0.016 | 0.207 |
| CC(C)(C)[C@H](NC(=O)C1(F)CC1)C(=O)N1C[C@@H]2CCC[C@@H]2[C@H]1C(=O)NN(C[C@@H]1CCNC1=O)C(=O)[C@@H](F)Cl [Example 103, N-[(1S)-1-[(3S,3aS,6aR)-3-[[[(2S)-2-chloro-2-fluoro-acetyl]-[[(3S)-2-oxopyrrolidin-3-yl]methyl]amino]carbamoyl]-3,3a,4,5,6,6a-hexahydro-1H-cyclopenta[c]pyrrole-2-carbonyl]-2,2-dimethyl-propyl]-1-fluoro-cyclopropanecarboxamide] | 0.167 | 0.013 | 0.025 | 0.372 |
| CC(C)(C)[C@H](NC(=O)[C@H]1CC1(F)F)C(=O)N1C[C@@H]2CCC[C@@H]2[C@H]1C(=O)NN(C[C@@H]1CCNC1=O)C(=O)[C@@H](F)Cl [Example 104, (1R)—N-[(1S)-1-[(3S,3aS,6aR)-3-[[[(2S)-2-chloro-2-fluoro-acetyl]-[[(3S)-2-oxopyrrolidin-3-yl]methyl]amino]carbamoyl]-3,3a,4,5,6,6a-hexahydro-1H-cyclopenta[c]pyrrole-2-carbonyl]-2,2-dimethyl-propyl]-2,2-difluoro-cyclopropanecarboxamide] | 0.055 | 0.012 | 0.02 | 0.128 |
| CC[C@H](C)[C@H](NC(=O)C1(F)CCC1)C(=O)N1C[C@H]2[C@@H]([C@H]1C(=O)NN(C[C@@H]1CCNC1=O)C(=O)[C@H](F)Cl)C2(C)C [Example 105, N-[(1S,2S)-1-[(1R,2S,5S)-2-[[[(2R)-2-chloro-2-fluoro-acetyl]-[[(3S)-2-oxopyrrolidin-3-yl]methyl]amino]carbamoyl]-6,6-dimethyl-3-azabicyclo[3.1.0]hexane-3-carbonyl]-2-methyl-butyl]-1-fluoro-cyclobutanecarboxamide] | 0.027 | 0.008 | 0.011 | 0.071 |
| CC[C@H](C)[C@H](NC(=O)C1(F)CC1)C(=O)N1C[C@H]2[C@@H]([C@H]1C(=O)NN(C[C@@H]1CCNC1=O)C(=O)[C@@H](F)Cl)C2(C)C [Example 106, N-[(1S,2S)-1-[(1R,2S,5S)-2-[[[(2S)-2-chloro-2-fluoro-acetyl]-[[(3S)-2-oxopyrrolidin-3-yl]methyl]amino]carbamoyl]-6,6-dimethyl-3-azabicyclo[3.1.0]hexane-3-carbonyl]-2-methyl-butyl]-1-fluoro-cyclopropanecarboxamide] | 0.066 | 0.033 | 0.057 | 0.179 |
| CC[C@H](C)[C@H](NC(=O)C(F)(F)F)C(=O)N1C[C@H]2[C@@H]([C@H]1C(=O)NN(C[C@@H]1CCNC1=O)C(=O)[C@@H](F)Cl)C2(C)C [Example 107, N-[(1S,2S)-1-[(1R,2S,5S)-2-[[[(2S)-2-chloro-2-fluoro-acetyl]-[[(3S)-2-oxopyrrolidin-3-yl]methyl]amino]carbamoyl]-6,6-dimethyl-3-azabicyclo[3.1.0]hexane-3-carbonyl]-2-methyl-butyl]-2,2,2-trifluoro-acetamide] | 0.04 | 0.018 | 0.025 | 0.111 |
| CC[C@H](C)[C@H](NC(=O)C1CC(F)(F)C1)C(=O)N1C[C@H]2[C@@H]([C@H]1C(=O)NN(C[C@@H]1CCNC1=O)C(=O)[C@@H](F)Cl)C2(C)C [Example 108, N-[(1S,2S)-1-[(1R,2S,5S)-2-[[[(2S)-2-chloro-2-fluoro-acetyl]-[[(3S)-2-oxopyrrolidin-3-yl]methyl]amino]carbamoyl]-6,6-dimethyl-3-azabicyclo[3.1.0]hexane-3-carbonyl]-2-methyl-butyl]-3,3-difluoro-cyclobutanecarboxamide] | 0.05 | 0.043 | 0.074 | 0.127 |
| CC[C@H](C)[C@H](NC(=O)C(F)F)C(=O)N1C[C@H]2[C@@H]([C@H]1C(=O)NN(C[C@@H]1CCNC1=O)C(=O)[C@@H](F)Cl)C2(C)C [Example 109, N-[(1S,2S)-1-[(1R,2S,5S)-2-[[[(2S)-2-chloro-2-fluoro-acetyl]-[[(3S)-2-oxopyrrolidin-3-yl]methyl]amino]carbamoyl]-6,6-dimethyl-3-azabicyclo[3.1.0]hexane-3-carbonyl]-2-methyl-butyl]-2,2-difluoro-acetamide] | 0.029 | 0.014 | 0.02 | 0.086 |
| CC[C@H](C)[C@H](NC(=O)C(C)C)C(=O)N1C[C@H]2[C@@H]([C@H]1C(=O)NN(C[C@@H]1CCNC1=O)C(=O)[C@@H](F)Cl)C2(C)C [Example 110, N-[(1S,2S)-1-[(1R,2S,5S)-2-[[[(2S)-2-chloro-2-fluoro-acetyl]-[[(3S)-2-oxopyrrolidin-3-yl]methyl]amino]carbamoyl]-6,6-dimethyl-3-azabicyclo[3.1.0]hexane-3-carbonyl]-2-methyl-butyl]-2-methyl-propanamide] | 0.037 | 0.024 | 0.033 | 0.096 |
| CC[C@@H](C)[C@H](NC(=O)C(F)F)C(=O)N1C[C@H]2[C@@H]([C@H]1C(=O)NN(C[C@@H]1CCNC1=O)C(=O)[C@H](F)Cl)C2(C)C [Example 112, N-[(1S,2R)-1-[(1R,2S,5S)-2-[[[(2R)-2-chloro-2-fluoro-acetyl]-[[(3S)-2-oxopyrrolidin-3-yl]methyl]amino]carbamoyl]-6,6-dimethyl-3-azabicyclo[3.1.0]hexane-3-carbonyl]-2-methyl-butyl]-2,2-difluoro-acetamide] | 0.022 | 0.008 | 0.014 | 0.071 |
| CC[C@@H](C)[C@H](NC(=O)C1CC(F)(F)C1)C(=O)N1C[C@H]2[C@@H]([C@H]1C(=O)NN(C[C@@H]1CCNC1=O)C(=O)[C@H](F)Cl)C2(C)C [Example 114, N-[(1S,2R)-1-[(1R,2S,5S)-2-[[[(2R)-2-chloro-2-fluoro-acetyl]-[[(3S)-2-oxopyrrolidin-3-yl]methyl]amino]carbamoyl]-6,6-dimethyl-3-azabicyclo[3.1.0]hexane-3-carbonyl]-2-methyl-butyl]-3,3-difluoro-cyclobutanecarboxamide] | 0.029 | 0.017 | 0.025 | 0.113 |
